Measured values from patent US7799775B2, “Pyrimidine derivatives” (ASKA Pharmaceutical Co., Ltd., priority 2004, dated 2010).
Structures can show the parent of a compound that is named as a salt. Blank lines part the entries; values can stand above or below the molecule they belong to.

Tests used:
[1] = target: T1, 5-HT3 receptor (Rattus norvegicus, UniProt P35563); experiment: Measurement of 5-HT3 receptor antagonistic action on rats (in vivo): inhibition of serotonin-induced bradycardia (BJ reflex); settings: anesthetized SD male rats, dose 1.0 mg/kg intravenous, serotonin 300 μg/kg 10 minutes later
T1 construct: from tissue; host or cells: whole animal (SD male rats), serotonin-induced bradycardia
T1 sequence (P35563 24-483): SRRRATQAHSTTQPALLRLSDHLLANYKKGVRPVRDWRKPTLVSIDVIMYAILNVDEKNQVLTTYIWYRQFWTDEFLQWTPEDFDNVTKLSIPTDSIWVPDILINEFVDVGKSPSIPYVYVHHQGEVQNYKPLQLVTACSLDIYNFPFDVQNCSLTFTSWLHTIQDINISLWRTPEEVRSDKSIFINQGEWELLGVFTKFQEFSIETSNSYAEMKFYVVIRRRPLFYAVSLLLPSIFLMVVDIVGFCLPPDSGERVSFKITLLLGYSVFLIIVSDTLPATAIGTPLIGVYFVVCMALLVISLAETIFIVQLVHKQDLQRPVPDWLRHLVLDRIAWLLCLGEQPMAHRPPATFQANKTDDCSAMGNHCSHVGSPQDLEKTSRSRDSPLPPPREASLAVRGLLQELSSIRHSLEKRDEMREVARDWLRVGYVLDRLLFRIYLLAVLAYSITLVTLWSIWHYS
Method: (4) Measurement of 5-HT3 Receptor Antagonistic Action on Rats (in Vivo)
SD male rats (weighing 270-410 g) were anesthetized by peritoneal administration of 1.25 g/kg of urethane (as dissolved in distilled water), and then catheters for measuring blood pressure and heart rate were inserted into their left carotid artery and a catheter for administration of test compound was inserted into their […]. After their blood pressure and heart rate were stabilized, 300 μg/kg of 5-hydroxytryptamine creatinine sulfate (serotonin) was rapidly intravenously administered and thereby induced transient bradycardiac reaction (BC 1) was observed. When the blood pressure and heart rate were re-stabilized after the serotonic administration, the test compounds were intravenously administered to the rats. Ten minutes thereafter, 300 μg/kg of serotonin was once again rapidly intravenously administered and thereby induced transient bradycardiac reaction (BC 2) was observed. Percent inhibition of bradycardia manifestation of each test compound, i.e., BJ reflex inhibition, can be calculated according to the following expression: […]

[2] = system: rats under restraint stress; experiment: Measurement of defecation acceleration in rats under restraint stress; type: in vivo, rat; settings: 1 hour restraint stress, group average (Normal 1.7, Control 6.8)
Method: (5) Measurement of Defecation Acceleration in Rats under Restraint Stress […] Feed and drinking water were left for their free ingestion until the morning of the day on which the test was given. On the day of the experiment, test compounds were orally administered and positive control solution (the used compounds were dissolved in 1N-hydrochloric acid and diluted with a suitable amount of saline) was administered intraperitoneally. Five (5) minutes thereafter, under lightly anesthetized condition, the rats were placed under restraint stress, with their upper half of the bodies including the front feet immobilized with gum tape. The restraint stress loading was conducted for an hour, and the number of excrements discharged during that period was counted. […] Those compounds which were used as the positive control chemicals used in the acceleration of defecation in rats under restraint stress are identified with the following structures.

[3] = target: T2, 5-HT1A receptor (Rattus norvegicus, UniProt P19327); experiment: Measurement of 5-HT1A receptor agonistic action on rats (in vivo): lower lip retraction and flat body posture; settings: SD male rats, 10 mg/kg intraperitoneal; maximum of group evaluation points, 4 grades 0-3, observed 5-30 min after administration
T2 construct: from tissue; host or cells: whole animal (SD male rats), behavioural read-out
T2 sequence (P19327 1-422): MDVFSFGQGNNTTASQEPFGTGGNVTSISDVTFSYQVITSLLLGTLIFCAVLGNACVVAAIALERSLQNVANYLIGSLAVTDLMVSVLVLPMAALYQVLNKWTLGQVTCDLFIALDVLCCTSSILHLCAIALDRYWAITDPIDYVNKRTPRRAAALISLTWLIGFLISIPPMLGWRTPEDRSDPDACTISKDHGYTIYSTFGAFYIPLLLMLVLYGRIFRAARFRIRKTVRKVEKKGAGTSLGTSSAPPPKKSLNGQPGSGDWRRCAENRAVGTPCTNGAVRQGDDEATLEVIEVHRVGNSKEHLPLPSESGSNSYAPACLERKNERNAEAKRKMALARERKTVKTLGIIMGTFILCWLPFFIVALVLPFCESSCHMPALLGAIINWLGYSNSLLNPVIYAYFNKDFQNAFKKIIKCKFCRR
Method: (3) Measurement of 5-HT1A Receptor Agonistic Action on Rats (in Vivo):
Seven weeks old SD male rats were divided into 4-5 rats per group which were accustomized to the experimental environments twice. A week after the second accustomization, the rats were put into a transparent plastic case, and 10 mg/kg of a test compound (as dissolved in 1N-hydrochloric acid and diluted with suitable amount of saline) was intraperitoneally administered thereto. Immediately before the administration and 5, 10, 20 and 30 minutes after the administration, behaviors of the rats were observed as to lower lip retraction (LLP) and flat body posture (FBP). The results were evaluated in 4 grades (0: no reaction, 1: feeble reaction, 2: medium reaction, 3: maximum reaction).

[4] = target: T3, human 5-HT1A receptor (Homo sapiens, UniProt P08908); experiment: Affinity measurement of the compounds to human 5-HT1A receptor (in vitro), [3H]8-OH-DPAT binding; settings: test compound 100 nmols/L, [3H]8-OH-DPAT 0.25 nmols/L, CHO cell membrane expressing human 5-HT1A receptor; for inhibition at 0.1 µM: read-out: Percent Inhibition (%) on Each Receptor's Binding at 10^−7M, 5-HT1A
T3 construct: purchased Packard Bioscience; host or cells: CHO cells (membrane preparation)
T3 sequence (P08908 1-422): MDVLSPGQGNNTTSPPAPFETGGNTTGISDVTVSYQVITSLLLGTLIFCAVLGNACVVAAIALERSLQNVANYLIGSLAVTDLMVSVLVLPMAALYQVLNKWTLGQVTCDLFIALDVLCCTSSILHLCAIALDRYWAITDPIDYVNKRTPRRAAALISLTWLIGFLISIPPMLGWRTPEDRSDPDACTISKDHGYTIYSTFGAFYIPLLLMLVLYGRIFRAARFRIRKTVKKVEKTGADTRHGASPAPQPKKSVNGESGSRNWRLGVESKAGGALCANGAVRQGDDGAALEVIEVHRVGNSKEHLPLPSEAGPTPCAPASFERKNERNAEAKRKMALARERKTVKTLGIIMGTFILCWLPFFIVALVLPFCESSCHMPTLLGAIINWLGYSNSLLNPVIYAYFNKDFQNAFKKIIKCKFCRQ
Method in brief: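 Membranes from CHO cells expressing human 5-HT1A were incubated 60 min at 27 °C with 0.25 nmol/L [3H]8-OH-DPAT and compound in Tris/MgSO4/EDTA/ascorbate buffer, pH 7.4. Bound radioactivity was collected on PEI-soaked GF/C filters and counted; percent inhibition was corrected for non-specific binding defined with 10 μmol/L 8-OH-DPAT.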

[5] = target: T4, human 5-HT3 receptor (Homo sapiens, UniProt P46098); experiment: Measurement of affinity to human 5-HT3 receptor (in vitro), [3H]BRL-43694 binding; settings: test compound 100 nmols/L, [3H]BRL-43694 0.5 nmols/L, HEK-293 cell membrane expressing human 5-HT3 receptor; for inhibition at 0.1 µM: read-out: Percent Inhibition (%) on Each Receptor's Binding at 10^−7M, 5-HT3
T4 construct: purchased BIOLINKS K.K; host or cells: HEK-293 cells (membrane preparation)
T4 sequence (P46098 24-478): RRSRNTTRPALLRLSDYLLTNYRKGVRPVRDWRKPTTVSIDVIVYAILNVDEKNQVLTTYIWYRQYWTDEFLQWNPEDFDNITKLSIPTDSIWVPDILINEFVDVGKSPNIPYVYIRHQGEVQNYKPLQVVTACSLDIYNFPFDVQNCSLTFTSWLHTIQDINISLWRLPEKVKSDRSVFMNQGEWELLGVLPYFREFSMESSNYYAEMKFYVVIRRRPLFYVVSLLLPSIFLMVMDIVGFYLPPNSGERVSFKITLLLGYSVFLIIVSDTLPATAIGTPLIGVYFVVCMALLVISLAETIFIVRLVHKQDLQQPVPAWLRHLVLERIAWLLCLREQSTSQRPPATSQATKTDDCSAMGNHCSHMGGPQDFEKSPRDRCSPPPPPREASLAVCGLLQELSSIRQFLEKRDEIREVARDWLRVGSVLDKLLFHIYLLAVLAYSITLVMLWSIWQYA
Method in brief: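 Membranes from HEK-293 cells expressing the receptor were incubated with 0.5 nmol/L radioligand and compound for 60 min at 25 °C in Tris/MgCl2/EDTA buffer, pH 7.5. Bound radioactivity was collected by filtration and counted. Percent inhibition was corrected for non-specific binding defined with 10 μmol/L tropisetron; compounds were tested at 100 nmol/L.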

[6] = 1 mg/kg intraperitoneal administration
[7] = 0.3 mg/kg intraperitoneal administration
[8] = 3 mg/kg intraperitoneal administration

SMILES: Oc1ccc2ccnc(N3CCNCC3)c2c1 [Production Example 95, 7-hydroxy-1-piperazin-1-ylisoquinoline hydrochloride]
BC Inhibition (%) [1]: 96.0%

melting point: 160.1 to 161.8 °C
SMILES: CCOC(=O)c1sc2nc(SCCCN3CCN(c4ccccn4)CC3)[nH]c(=O)c2c1C [Example 2-3, 5-methyl-4-oxo-2-[3-(4-pyridin-2-ylpiperazin-1-yl)propylthio]-3,4-dihydrothieno[2,3-d]pyrimidine-6-carboxylic acid ethyl ester]

SMILES: Cc1nccn1C[C@H]1CCc2c(c3cccc4c3n2CCC4)C1=O [cilansetron, reference compound]
Number of excrements [2, 6]: 4.0

melting point: 200.5 to 201.2 °C
SMILES: Cc1sc2nc(SCCCN3CCN(c4nc5ccccc5s4)CC3)n(N)c(=O)c2c1C [Example 1-6, 3-amino-2-[3-(4-benzothiazol-2-ylpiperazin-1-yl)propylthio]-5,6-dimethyl-3H-thieno[2,3-d]pyrimidin-4-one]

SMILES: Cc1[nH]cnc1CN1CCc2c(c3ccccc3n2C)C1=O.Cl [alosetron, reference compound]
Number of excrements [2, 7]: 5.2 | Number of excrements [2, 6]: 4.1 | Number of excrements [2, 8]: 3.7

SMILES: Cc1ccc2ccnc(N3CCNCC3)c2c1 [Production Example 46, 7-methyl-1-piperazin-1-ylisoquinoline]
BC Inhibition (%) [1]: 94.4%

SMILES: COc1ccc2ccnc(N3CCNCC3)c2c1 [Production Example 34, 7-methoxy-1-piperazin-1-ylisoquinoline]
5-HT1A Receptor Agonistic Action on Rats, FBP [3]: 2.8 | 5-HT1A Receptor Agonistic Action on Rats, LLR [3]: 3.0 | BC Inhibition (%) [1]: 92.0%

SMILES: c1ccc2c(N3CCNCC3)nccc2c1 [Production Example 35, 1-piperazin-1-ylisoquinoline]
BC Inhibition (%) [1]: 94.6%

SMILES: CN1[C@@H]2CCC[C@H]1C[C@@H](NC(=O)c1nn(C)c3ccccc13)C2.Cl [granisetron, reference compound]
Number of excrements [2, 7]: 4.3

SMILES: Cl.O=C1CC2(CCCC2)CC(=O)N1CCCCN1CCN(c2ncccn2)CC1 [buspirone, reference compound]
Number of excrements [2, 6]: 4.3

SMILES: CN1CCN(c2nccc3ccc(Cl)cc23)CC1 [Production Example 50, 7-chloro-1-(4-methylpiperazin-1-yl)isoquinoline]
BC Inhibition (%) [1]: 86.8%

SMILES: O=C(O)CC(O)(CC(=O)O)C(=O)O.O=C1[C@@H]2[C@H]3CC[C@H](C3)[C@@H]2C(=O)N1CCCCN1CCN(c2ncccn2)CC1 [tandospirone, reference compound]
Number of excrements [2, 6]: 5.7 | Number of excrements [2, 8]: 4.3 | Number of excrements ([2]; 10 mg/kg intraperitoneal administration): 3.8

SMILES: O[C@@H]1C[C@H]2CN(c3nccc4occc34)CCN2C1 [Production Example 114, 4-((7R,8aS)-7-hydroxyoctahydropyrrolo[1,2-a]pyrazin-2-yl)furo[3,2-c]-pyridine]
inhibition at 0.1 µM [4]: 16.7% | inhibition at 0.1 µM [5]: 91%

inhibition at 0.1 µM [4]: 82.4% | inhibition at 0.1 µM [5]: 5.3%
SMILES: COc1cc2nc(CCCCN3CCN(c4ccc5ccccc5n4)CC3)n(C)c(=O)c2cc1OC [Example 7-22, 6,7-dimethoxy-3-methyl-2-[4-(4-quinolin-2-ylpiperazin-1-yl)butyl]-3H-quinazolin-4-one]

Percent Inhibition (%) on Each Receptor's Binding at 10^−7M, 5-HT1A [4]: 94.0% | Percent Inhibition (%) on Each Receptor's Binding at 10^−7M, 5-HT3 [5]: 94.2%
SMILES: Cc1cc(N2CCN(CCCSc3nc4sc5c(c4c(=O)n3N)CCCC5)CC2)nc2ccccc12 [Example 1-33]

inhibition at 0.1 µM [4]: 73.5% | inhibition at 0.1 µM [5]: 92.4%
SMILES: Cn1c(NCCCN2CCN(c3ccc4ccccc4n3)CC2)nc2ccccc2c1=O [Example 7-30, 3-methyl-2-[3-(4-quinolin-2-ylpiperazin-1-yl)propylamine]-3H-quinazolin-4-one]

SMILES: c1cc2sccc2c(N2CCN3CCC[C@@H]3C2)n1 [Production Example 109, 4-((8aR)-octahydropyrrolo[1,2-a]pyrazin-2-yl)thieno[3,2-c]pyridine]
inhibition at 0.1 µM [4]: 75.4% | inhibition at 0.1 µM [5]: 92.5%
